Results reported in patent publication US20120122843A1, “Compounds and Their Use for Treatment of Amyloid Beta-Related Diseases” (ASTRAZENECA AB, priority 2010, published 2012).

What was measured:
Aβ42 = Aβ42 release from HEK cells stably expressing APPswe (MSD electrochemiluminescence); assay type: cell-based, Human; settings: 4-6 h incubation with test compound, Aβ42 secreted to cell medium
Experimental: The level of activity of the compounds on Aβ formation was tested using the following method:
Compounds were diluted in 100% DMSO and stored at […] prior to use. Human Embryonic Kidney (HEK) cell line stably expressing APP with the Swedish mutation (APPswe) were cultured using Dulbecco's Modified Eagles medium (DMEM) supplied with […] glucose, Na-pyruvate and GlutaMAX with 10% FBS, 100 U/ml penicillin-streptomycin (PEST) respectively, 1× non-essential amino acids (NEAA), […] Hepes, 100 μg/ml Zeocine. Cells at about 80% confluence were washed with PBS, detached from culture flasks using 1× Trypsin/EDTA diluted in PBS, re-suspended in cell media and plated in 384-well poly-d-lysine coated cell culture plates at about 10000-15000 cells/well, in 25 μL cell media. Optionally, cryo-preserved cells (frozen and stored at −140° C. in 90% cell media and 10% DMSO) were thawed, washed and plated as above. Next the cells were incubated for 15-24 h at 37° C. and 5% CO2, after which cell medium was changed. Fresh medium containing test compound diluted ×200 from prepared compound plate was added to the cells before further incubation for 4-6 hours at 37° C. and 5% CO2. After incubation with test compound the amount of Aβ peptides, including Aβ42, Aβ40, Aβ39, Aβ38 and Aβ37, as well as total Aβ levels, secreted to cell medium was analyzed using the electrochemiluminescence assay technology from Meso Scale Discovery (MSD), in combination with specific antibodies raised against the different Aβ peptides. Aβ42, Aβ40 and Aβ38 antibodies were purchased from MSD and Aβ37 and Aβ39 were made in house. Total Aβ was measured using a combination of 6E10 and 4G8 anti Aβ antibodies from MSD. Potential cytotoxic effects of the compounds were usually assayed by measuring the ATP content (ViaLight) from cell lysate.

Notch = experiment: Release and translocation of Notch intracellular domain into the nucleus, HEK/AENotch cells (NICD immunostaining, ImageXpress); assay type: cell-based, Human; settings: 3 μM Lactacystin, 4-6 h incubation, nucleus/cytosol NICD fluorescence ratio
Experimental: The level of activity of the compounds on release and translocation of Notch intracellular domain into the cell nucleus was tested using the following method:
Compounds were diluted in 100% DMSO and stored at […] prior to use. Human Embryonic Kidney cell line overexpressing Notchl-E-human-myc construct (referred to as HEK/AENotch) were cultured in T75 cm^2 or T225 cm^2 cell culture flasks using Dulbecco's Modified Eagles medium (DMEM) supplemented with […] glucose, Na-pyruvate and GlutaMAX with 10% FBS, 100 U/ml penicillin-streptomycin (PEST) respectively, 1× non-essential amino acids (NEAA), […] Hepes and 100 μg/ml Hygromycin. Cells at about 80% confluence were washed with PBS, detached from the flask bottom using 1× Trypsin/EDTA diluted in PBS, re-suspended in cell media and plated in 384-well plates at about 10000 cells/well, in 25 μL cell media. Optionally, cryo-preserved cells (frozen and stored at −140° C. in 90% cell media and 10% DMSO) were thawed, washed and plated as above. Next the cells were incubated for 15-24 h at 37° C. and 5% CO2, after which cell medium was replaced with fresh medium containing 3 μM Lactacystin and test compound diluted ×200 from prepared compound plate giving 0.5% final DMSO concentration, and the highest compound concentration typically 25 μM. Cells were then incubated 4-6 h with test compound before being fixed, washed and immunostained with NICD antibody (rabbit Notch 1 (C-20)). Image acquisition of cytosolic/membrane and nuclear fluorescence as well as subsequent analysis of the nucleus and cytosolic fluorescence ratio was carried out using ImageXpress. Potential cytotoxic effects of the compounds were usually assayed by analysis of nucleus area or cell number.

[1] = Homo sapiens, HEK293, HEK cells expressing APPswe

| SMILES | IC50 (Aβ42; [1]) [nM] | IC50 (Aβ42; HEK cells expressing APPswe) [nM] | IC50 (Notch) [nM] | IC50 (Notch; Homo sapiens) [nM] |
| --- | --- | --- | --- | --- |
| COc1nc(Nc2ccc3c(n2)OC(c2ncccc2C)CN(C)C3)ccc1-c1cnn(C)c1 (stereo not drawn) [Example 16, N-(6-Methoxy-5-(1-methyl-1H-pyrazol-4-yl)pyridin-2-yl)-4-methyl-2-(3-methylpyridin-2-yl)-2,3,4,5-tetrahydropyrido[3,2-f][1,4]oxazepin-8-amine] | 305 | – | – | – |
| COc1nc(Nc2cc(C)c3c(n2)OC(C2CCCO2)CN(C)C3)ccc1-c1cnn(C)c1 (single isomer, unassigned) [Example 26, N-(6-Methoxy-5-(1-methyl-1H-pyrazol-4-yl)pyridin-2-yl)-4,6-dimethyl-2-(tetrahydrofuran-2-yl)-2,3,4,5-tetrahydropyrido[3,2-f][1,4]oxazepin-8-amine] | – | 56 | > 7900 | – |
| COc1nc(Nc2ccc3c(n2)O[C@H](c2ccc(F)cn2)CN(C)C3C)ccc1-c1cnn(C)c1 (single isomer, unassigned) [Example 50] | – | 60 | 2310 | – |
| COc1nc(Nc2ccc3c(n2)OC(c2ncc(C)s2)CN(C)C3)ccc1-n1cnc(C)c1 (single isomer, unassigned; (-)) [Example 65, (−)-N-(6-Methoxy-5-(4-methyl-1H-imidazol-1-yl)pyridin-2-yl)-4-methyl-2-(5-methylthiazol-2-yl)-2,3,4,5-tetrahydropyrido[3,2-f][1,4]oxazepin-8-amine] | – | 9 | – | > 25000 |
| COc1nc(Nc2ccc3c(n2)O[C@H](c2nc(C)cs2)CN(C)C3)c(F)cc1-c1cnn(C)c1 [Example 54, (2S)—N-[3-Fluoro-6-methoxy-5-(1-methylpyrazol-4-yl)-2-pyridyl]-4-methyl-2-(4-methylthiazol-2-yl)-3,5-dihydro-2H-pyrido[3,2-f][1,4]oxazepin-8-amine] | 18 | – | – | 6490 |
| COc1nc(Nc2ccc3c(n2)OC(c2nc(C)cs2)C(C)N(C)C3)ccc1-c1cnn(C)c1 (single isomer, unassigned) [Example 29, N-(6-Methoxy-5-(1-methyl-1H-pyrazol-4-yl)pyridin-2-yl)-3,4-dimethyl-2-(4-methylthiazol-2-yl)-2,3,4,5-tetrahydropyrido[3,2-f][1,4]oxazepin-8-amine] | – | 68 | 5000 | – |
| COc1nc(Nc2ccc3c(n2)OC(C2CC2)CN(C)C3C)ccc1-c1cnn(C)c1 (single isomer, unassigned) [Example 17, 2-Cyclopropyl-N-(6-methoxy-5-(1-methyl-1H-pyrazol-4-yl)pyridin-2-yl)-4,5-dimethyl-2,3,4,5-tetrahydropyrido[3,2-f][1,4]oxazepin-8-amine] | – | 14 | – | > 7900 |
| COc1nc(Nc2ccc3c(n2)OC(C2CC(F)(F)C2)CN(C)C3)ccc1-c1cnn(C)c1 (single isomer, unassigned) [Example 38, 2-(3,3-Difluorocyclobutyl)-N-(6-methoxy-5-(1-methyl-1H-pyrazol-4-yl)pyridin-2-yl)-4-methyl-2,3,4,5-tetrahydropyrido[3,2-f][1,4]oxazepin-8-amine] | – | 15 | > 25000 | – |
| COc1nc(Nc2cc(C)c3c(n2)OC(c2nc(C)cs2)CN(C)C3)ccc1-c1cnn(C)c1 (single isomer, unassigned) [Example 21, N-(6-Methoxy-5-(1-methyl-1H-pyrazol-4-yl)pyridin-2-yl)-4,6-dimethyl-2-(4-methylthiazol-2-yl)-2,3,4,5-tetrahydropyrido[3,2-f][1,4]oxazepin-8-amine] | – | 179 | – | – |
| CN1Cc2ccc(Nc3ccc(-c4cnn(C)c4)cn3)nc2O[C@H](c2ccccc2)C1 [Example 15, (R)-4-Methyl-N-(5-(1-methyl-1H-pyrazol-4-yl)pyridin-2-yl)-2-phenyl-2,3,4,5-tetrahydropyrido[3,2-f][1,4]oxazepin-8-amine] | 137 | – | – | – |
| COc1nc(Nc2ccc3c(n2)OC(C2CC2)CN(C)C3C)ccc1-c1cnn(C)c1 (single isomer, unassigned) [Example 19, 2-Cyclopropyl-N-(6-methoxy-5-(1-methyl-1H-pyrazol-4-yl)pyridin-2-yl)-4,5-dimethyl-2,3,4,5-tetrahydropyrido[3,2-f][1,4]oxazepin-8-amine] | – | 124 | – | – |

The next lines start with results.

| IC50 (Aβ42; [1]) [nM] | IC50 (Aβ42; HEK cells expressing APPswe) [nM] | SMILES | IC50 (Notch) [nM] | IC50 (Notch; Homo sapiens) [nM] |
| --- | --- | --- | --- | --- |
| 493 | – | COc1nc(Nc2ccc3c(n2)OC(CC(F)(F)F)CN(C)C3)ccc1-c1ccc(=O)n(C)c1 (single isomer, unassigned) [Example 43, 5-(2-Methoxy-6-(4-methyl-2-(2,2,2-trifluoroethyl)-2,3,4,5-tetrahydropyrido[3,2-f][1,4]oxazepin-8-ylamino)pyridin-3-yl)-1-methylpyridin-2(1H)-one] | – | – |
| – | 16 | COc1nc(Nc2ccc3c(n2)OC(CC(F)(F)F)CN(C)C3C)ccc1-c1cnn(C)c1 (single isomer, unassigned) [Example 34, N-(6-Methoxy-5-(1-methyl-1H-pyrazol-4-yl)pyridin-2-yl)-4,5-dimethyl-2-(2,2,2-trifluoroethyl)-2,3,4,5-tetrahydropyrido[3,2-f][1,4]oxazepin-8-amine] | > 25000 | – |
| – | 12 | COc1nc(Nc2ccc3c(n2)OC(CC(F)(F)F)CN(C)C3C)ccc1-c1cnn(C)c1 (single isomer, unassigned) [Example 35, N-(6-Methoxy-5-(1-methyl-1H-pyrazol-4-yl)pyridin-2-yl)-4,5-dimethyl-2-(2,2,2-trifluoroethyl)-2,3,4,5-tetrahydropyrido[3,2-f][1,4]oxazepin-8-amine] | > 25000 | – |
| 33 | – | COc1nc(Nc2ccc3c(n2)OC(CC(F)(F)F)CN(C)C3)ccc1-c1ccnc(C)n1 (stereo not drawn) [Example 46, N-[6-Methoxy-5-(2-methylpyrimidin-4-yl)-2-pyridyl]-4-methyl-2-(2,2,2-trifluoroethyl)-3,5-dihydro-2H-pyrido[3,2-f][1,4]oxazepin-8-amine] | – | > 25000 |
| 38 | – | COc1nc(Nc2ccc3c(n2)O[C@H](c2ccccc2)CN(C)C3)ccc1-c1ccc(=O)n(C)c1 [Example 45, (R)-5-(2-Methoxy-6-(4-methyl-2-phenyl-2,3,4,5-tetrahydropyrido[3,2-f][1,4]oxazepin-8-ylamino)pyridin-3-yl)-1-methylpyridin-2(1H)-one] | – | – |
| – | 226 | COc1nc(Nc2ccc3c(n2)OC(c2nc(C)cs2)CN(C)C3)ccc1-c1cnn(C)c1 (single isomer, unassigned; (+)) [Example 10, (+)-N-(6-Methoxy-5-(1-methyl-1H-pyrazol-4-yl)pyridin-2-yl)-4-methyl-2-(4-methylthiazol-2-yl)-2,3,4,5-tetrahydropyrido[3,2-f][1,4]oxazepin-8-amine] | – | – |
| – | 374 | COc1nc(Nc2ccc3c(n2)OC(CC(F)(F)F)CN(C)C3)ccc1-c1ccc(=O)n(C)c1 (single isomer, unassigned) [Example 44, 5-(2-Methoxy-6-(4-methyl-2-(2,2,2-trifluoroethyl)-2,3,4,5-tetrahydropyrido[3,2-f][1,4]oxazepin-8-ylamino)pyridin-3-yl)-1-methylpyridin-2(1H)-one] | – | – |
| – | 4 | COc1nc(Nc2ccc3c(n2)OC(CC(F)(F)F)CN(C)C3)ccc1-c1cnc(C)o1 (single isomer, unassigned) [Example 64, N-[6-Methoxy-5-(2-methyloxazol-5-yl)-2-pyridyl]-4-methyl-2-(2,2,2-trifluoroethyl)-3,5-dihydro-2H-pyrido[3,2-f][1,4]oxazepin-8-amine] | – | – |
| 3 | – | COc1nc(Nc2ccc3c(n2)OC(CC(F)(F)F)CN(C)C3)ccc1-c1cnc(C)o1 (single isomer, unassigned) [Example 63, N-[6-Methoxy-5-(2-methyloxazol-5-yl)-2-pyridyl]-4-methyl-2-(2,2,2-trifluoroethyl)-3,5-dihydro-2H-pyrido[3,2-f][1,4]oxazepin-8-amine] | – | – |
